Assay results taken from PubChem BioAssay AID2060607 (Molecular Pharmacology Branch, DTP, NCI, 2025).
pIC50: −log10 of the molar value.

System: 876862-298-R-J1-PDC complex spheroids, viability % test/control
Assay: Anticancer human tumor 876862-298-R-J1-PDC patient-derived endometrial carcinoma cell line growth inhibition [CLK]
Details: for pIC50: curve of first compound; for viability, T/C: stronger effect = lower value
In short: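 Multi-cell-type spheroids combined patient-derived tumor cells with HUVEC endothelial cells and human mesenchymal stem cells. Paired agents were dosed in half-log steps down from about clinical Cmax, or from 10 microM where Cmax was unknown.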

[1] = second compound 0.0316 µM, first compound 0.0316 µM
[2] = second compound 0.0316 µM, first compound 0.1 µM
[3] = second compound 0.0316 µM, first compound 0.316 µM
[4] = second compound 0.0316 µM, first compound 1 µM
[5] = second compound 0.1 µM, first compound 0.0316 µM
[6] = second compound 0.1 µM, first compound 0.1 µM
[7] = second compound 0.1 µM, first compound 0.316 µM
[8] = second compound 0.1 µM, first compound 1 µM
[9] = second compound 0.316 µM, first compound 0.0316 µM
[10] = second compound 0.316 µM, first compound 0.1 µM
[11] = second compound 0.316 µM, first compound 0.316 µM
[12] = second compound 0.316 µM, first compound 1 µM
[13] = second compound 1 µM, first compound 0.0316 µM
[14] = second compound 1 µM, first compound 0.1 µM
[15] = second compound 1 µM, first compound 0.316 µM
[16] = second compound 1 µM, first compound 1 µM
[17] = second compound 3.16 µM, first compound 0.0316 µM
[18] = second compound 3.16 µM, first compound 0.1 µM
[19] = second compound 3.16 µM, first compound 0.316 µM
[20] = second compound 3.16 µM, first compound 1 µM
[21] = second compound 10 µM, first compound 0.0316 µM
[22] = second compound 10 µM, first compound 0.1 µM
[23] = second compound 10 µM, first compound 0.316 µM
[24] = second compound 10 µM, first compound 1 µM
[25] = second compound 0.0316 µM, first compound 0.00316 µM
[26] = second compound 0.0316 µM, first compound 0.01 µM
[27] = second compound 0.1 µM, first compound 0.00316 µM
[28] = second compound 0.1 µM, first compound 0.01 µM
[29] = second compound 0.316 µM, first compound 0.00316 µM
[30] = second compound 0.316 µM, first compound 0.01 µM
[31] = second compound 1 µM, first compound 0.00316 µM
[32] = second compound 1 µM, first compound 0.01 µM
[33] = second compound 3.16 µM, first compound 0.00316 µM
[34] = second compound 3.16 µM, first compound 0.01 µM
[35] = second compound 10 µM, first compound 0.00316 µM
[36] = second compound 10 µM, first compound 0.01 µM
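Further: spheroids exposed to drugs for 7 days before readout.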
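Wherever viability, T/C is given: 100% = DMSO vehicle control wells.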

In the case of `CC(Nc1ccc2c(c1)OCCn1cc(N3C(=O)OCC3C(F)F)nc1-2)C(N)=O` (stereo unspecified) + CNC(=O)c1ccc(Nc2nc(OC3CCCC3)c3c(-c4ccc5nc(C)oc5c4)c[nH]c3n2)c(OC)c1, the pIC50 (second compound 0.0316 µM) was 6.50, the pIC50 (second compound 0.1 µM) was greater than 7.50 and the pIC50 (second compound 0.316 µM) was greater than 7.50. The pIC50 (second compound 1 µM) was greater than 7.50, the pIC50 (second compound 3.16 µM) was greater than 7.50 and the pIC50 (second compound 10 µM) was greater than 7.50. For the same compound, the viability, T/C [1] was 56%, the viability, T/C [2] was 61.4% and the viability, T/C [3] was 46.6%. The viability, T/C [4] was 41%, the viability, T/C (second compound 0.0316 µM, first compound 3.16 µM) was 31.8% and the viability, T/C (second compound 0.0316 µM, first compound 10 µM) was 20.8%. It also gave a viability, T/C [5] of 40.6%, a viability, T/C [6] of 38.3% and a viability, T/C [7] of 32.5%. For the same compound, the viability, T/C [8] was 27%, the viability, T/C (second compound 0.1 µM, first compound 3.16 µM) was 20.9% and the viability, T/C (second compound 0.1 µM, first compound 10 µM) was 16%. It also gave a viability, T/C [9] of 41%, a viability, T/C [10] of 33.2% and a viability, T/C [11] of 29.7%. For the same compound, the viability, T/C [12] was 23.1%, the viability, T/C (second compound 0.316 µM, first compound 3.16 µM) was 20% and the viability, T/C (second compound 0.316 µM, first compound 10 µM) was 17.4%. For the same compound, the viability, T/C [13] was 31.6%, the viability, T/C [14] was 25.4% and the viability, T/C [15] was 22.1%. The viability, T/C [16] was 20%, the viability, T/C (second compound 1 µM, first compound 3.16 µM) was 17.1% and the viability, T/C (second compound 1 µM, first compound 10 µM) was 14%. The viability, T/C [17] was 20.1%, the viability, T/C [18] was 16.7% and the viability, T/C [19] was 15.1%. The viability, T/C [20] was 14.8%, the viability, T/C (second compound 3.16 µM, first compound 3.16 µM) was 14% and the viability, T/C (second compound 3.16 µM, first compound 10 µM) was 10.2%. The viability, T/C [21] was 16.7%, the viability, T/C [22] was 14.8% and the viability, T/C [23] was 12.6%. The viability, T/C [24] was 13%, the viability, T/C (second compound 10 µM, first compound 3.16 µM) was 12% and the viability, T/C (second compound 10 µM, first compound 10 µM) was 9.25%.
In the case of `CCN1CCN(Cc2ccc(Nc3ncc(F)c(-c4cc(F)c5nc(C)n(C(C)C)c5c4)n3)nc2)CC1` + CNC(=O)c1ccc(Nc2nc(OC3CCCC3)c3c(-c4ccc5nc(C)oc5c4)c[nH]c3n2)c(OC)c1, the pIC50 (second compound 0.0316 µM) was less than 6.00, the pIC50 (second compound 0.1 µM) was 7.22 and the pIC50 (second compound 0.316 µM) was greater than 8.50. It also gave a pIC50 (second compound 1 µM) greater than 8.50, a pIC50 (second compound 3.16 µM) greater than 8.50 and a pIC50 (second compound 10 µM) greater than 8.50. It also gave a viability, T/C [25] of 76.6%, a viability, T/C [26] of 84.1% and a viability, T/C [1] of 69.4%. The viability, T/C [2] was 62.5%, the viability, T/C [3] was 59% and the viability, T/C [4] was 49%. It also gave a viability, T/C [27] of 46%, a viability, T/C [28] of 51.9% and a viability, T/C [5] of 57.1%. For the same compound, the viability, T/C [6] was 47.8%, the viability, T/C [7] was 47.8% and the viability, T/C [8] was 49.5%. It also gave a viability, T/C [29] of 47.2%, a viability, T/C [30] of 45.2% and a viability, T/C [9] of 49.6%. It also gave a viability, T/C [10] of 46.4%, a viability, T/C [11] of 45.1% and a viability, T/C [12] of 42.8%. For the same compound, the viability, T/C [31] was 34.7%, the viability, T/C [32] was 40.4% and the viability, T/C [13] was 41.1%. For the same compound, the viability, T/C [14] was 38.8%, the viability, T/C [15] was 31.8% and the viability, T/C [16] was 40.5%. For the same compound, the viability, T/C [33] was 28%, the viability, T/C [34] was 29.1% and the viability, T/C [17] was 27.1%. It also gave a viability, T/C [18] of 30%, a viability, T/C [19] of 30.1% and a viability, T/C [20] of 35.2%. For the same compound, the viability, T/C [35] was 25.2%, the viability, T/C [36] was 25.6% and the viability, T/C [21] was 22.7%. The viability, T/C [22] was 26.4%, the viability, T/C [23] was 30.1% and the viability, T/C [24] was 32.2%.
Work on `COc1c(OCCCN2CCOCC2)ccc2c3n(c(=NC(=O)c4cnc(N)nc4)nc12)CCN3` + CNC(=O)c1ccc(Nc2nc(OC3CCCC3)c3c(-c4ccc5nc(C)oc5c4)c[nH]c3n2)c(OC)c1 yielded a pIC50 (second compound 0.0316 µM) of 7.64, a pIC50 (second compound 0.1 µM) greater than 8.50 and a pIC50 (second compound 0.316 µM) greater than 8.50. For the same compound, the pIC50 (second compound 1 µM) was greater than 8.50, the pIC50 (second compound 3.16 µM) was greater than 8.50 and the pIC50 (second compound 10 µM) was greater than 8.50. For the same compound, the viability, T/C [25] was 63.1%, the viability, T/C [26] was 67.3% and the viability, T/C [1] was 43.5%. It also gave a viability, T/C [2] of 22.6%, a viability, T/C [3] of 15.8% and a viability, T/C [4] of 18%. For the same compound, the viability, T/C [27] was 45.5%, the viability, T/C [28] was 35.1% and the viability, T/C [5] was 25.3%. The viability, T/C [6] was 16.6%, the viability, T/C [7] was 16.6% and the viability, T/C [8] was 18.4%. The viability, T/C [29] was 37.4%, the viability, T/C [30] was 32.6% and the viability, T/C [9] was 22.6%. The viability, T/C [10] was 18.1%, the viability, T/C [11] was 13.4% and the viability, T/C [12] was 14.9%. It also gave a viability, T/C [31] of 29.2%, a viability, T/C [32] of 22.1% and a viability, T/C [13] of 18.4%. For the same compound, the viability, T/C [14] was 13.6%, the viability, T/C [15] was 12% and the viability, T/C [16] was 12.6%. It also gave a viability, T/C [33] of 22.1%, a viability, T/C [34] of 17% and a viability, T/C [17] of 12.5%. It also gave a viability, T/C [18] of 9.46%, a viability, T/C [19] of 9.04% and a viability, T/C [20] of 7.24%. The viability, T/C [35] was 17.3%, the viability, T/C [36] was 16.9% and the viability, T/C [21] was 13.3%. For the same compound, the viability, T/C [22] was 9.74%, the viability, T/C [23] was 6.96% and the viability, T/C [24] was 6.64%.
